Assay results taken from paper PMC8383802 (ACS chemical neuroscience, 2020).

Tests used:
[1] = test system: Meth self-administered rats; conditions: cited from earlier work
[2] = test system: methamphetamine (Meth)-induced hyper-locomotor activity; conditions: cited from earlier work
[3] = test system: alcohol self-administration; conditions: cited from earlier work
cocaine reward = conditions: cited from earlier work
alcohol intake = conditions: cited from earlier work; for alcohol intake: mice, without altering total fluid intake, alcohol-induced sedation or alcohol metabolism
[4] = test system: morphine-induced hyper-locomotor activity; conditions: cited from earlier work
[5] = test system: heroin self-administration; conditions: cited from earlier work
[6] = test system: cocaine self-administered mice; assay: Cocaine self-administration in mice
PDE4B = PDE4B (Homo sapiens, UniProt Q07343); assay: IC50 determination on PDE4 isoforms in vitro; type: binding; conditions: read-out: IC50 on PDE4B
PDE4B, sequence (Q07343 whole entry, canonical isoform): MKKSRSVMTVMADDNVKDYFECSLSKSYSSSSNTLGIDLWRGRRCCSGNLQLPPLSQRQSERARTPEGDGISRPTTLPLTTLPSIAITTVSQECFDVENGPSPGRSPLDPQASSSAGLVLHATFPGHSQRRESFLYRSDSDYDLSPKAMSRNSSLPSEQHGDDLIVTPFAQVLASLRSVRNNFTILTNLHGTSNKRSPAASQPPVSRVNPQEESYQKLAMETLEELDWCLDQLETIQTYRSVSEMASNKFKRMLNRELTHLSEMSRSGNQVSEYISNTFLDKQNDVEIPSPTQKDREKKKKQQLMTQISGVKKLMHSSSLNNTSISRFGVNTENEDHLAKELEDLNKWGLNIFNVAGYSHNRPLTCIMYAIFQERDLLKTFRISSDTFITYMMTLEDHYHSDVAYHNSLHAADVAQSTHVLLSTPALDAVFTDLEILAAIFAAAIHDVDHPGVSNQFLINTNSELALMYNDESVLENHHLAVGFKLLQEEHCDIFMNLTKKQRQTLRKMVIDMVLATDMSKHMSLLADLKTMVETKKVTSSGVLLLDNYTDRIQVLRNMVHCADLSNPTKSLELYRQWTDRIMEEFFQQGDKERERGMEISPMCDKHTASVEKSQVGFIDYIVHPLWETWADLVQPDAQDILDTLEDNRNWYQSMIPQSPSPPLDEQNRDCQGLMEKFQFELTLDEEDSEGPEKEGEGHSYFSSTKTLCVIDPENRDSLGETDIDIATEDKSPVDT

[7] = Pharmacokinetic study of KVA-D-88 in mice; type: in vivo
WT C57/BL6 mice = type: in vivo
PDE4D = PDE4D (Homo sapiens, UniProt Q08499); assay: IC50 determination on PDE4 isoforms in vitro; type: binding; conditions: read-out: IC50 on PDE4D
PDE4D, sequence (Q08499 whole entry, canonical isoform): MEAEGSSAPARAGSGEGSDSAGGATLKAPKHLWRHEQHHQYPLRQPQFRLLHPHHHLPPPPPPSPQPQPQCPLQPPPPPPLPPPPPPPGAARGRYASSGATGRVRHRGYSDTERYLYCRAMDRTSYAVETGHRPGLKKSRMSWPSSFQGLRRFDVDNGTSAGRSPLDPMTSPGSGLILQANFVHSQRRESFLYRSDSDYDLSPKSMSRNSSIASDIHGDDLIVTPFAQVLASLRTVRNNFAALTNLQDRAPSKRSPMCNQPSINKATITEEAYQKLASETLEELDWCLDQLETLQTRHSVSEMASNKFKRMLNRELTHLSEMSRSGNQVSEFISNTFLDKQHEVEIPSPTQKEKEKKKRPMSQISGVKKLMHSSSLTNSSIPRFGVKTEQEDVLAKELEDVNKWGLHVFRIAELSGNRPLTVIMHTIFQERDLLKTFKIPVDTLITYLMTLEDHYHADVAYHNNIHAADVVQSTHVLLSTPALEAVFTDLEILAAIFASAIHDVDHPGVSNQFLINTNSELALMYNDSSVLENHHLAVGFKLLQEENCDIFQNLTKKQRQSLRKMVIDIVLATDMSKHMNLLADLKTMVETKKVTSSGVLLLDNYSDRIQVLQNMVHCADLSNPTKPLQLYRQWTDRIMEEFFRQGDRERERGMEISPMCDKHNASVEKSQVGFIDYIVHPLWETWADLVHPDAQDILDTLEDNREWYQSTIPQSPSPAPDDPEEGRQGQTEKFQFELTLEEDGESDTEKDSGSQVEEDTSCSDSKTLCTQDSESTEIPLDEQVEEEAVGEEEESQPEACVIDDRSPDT

[8] = Brain and blood concentration of KVA-D-88 in mice; type: in vivo
[9] = FR1 schedule, 2 h, 5 and 2.5 mg/kg i.p. 30 min before, P < 0.05
[10] = FR3 schedule, 2 h session, 5 mg/kg, P < 0.05

## CC(C)C(=O)c1c(C(C)C)nn2ccccc12 [ibudilast]
[1]; Meth self-administered rats
  drug seeking and intake behaviors: decreased drug seeking and intake behaviors
[1]
  Meth-mediated seeking and consumption behaviors: effective in attenuating
[2]
  Meth-induced hyper-locomotor activity and sensitization: reduced

## COc1ccc(C2CNC(=O)C2)cc1OC1CCCC1 (stereo not shown) [rolipram]
[1]
  Meth-mediated seeking and consumption behaviors: effective in attenuating
[3]
  2-bottle choice alcohol consumption and preference: decreased
  alcohol self-administration: dose-dependently reduced
Cocaine reward; mice
  cocaine-induced locomotor sensitization and conditional place preference: attenuated
Cocaine reward; open field test, CPP and self-administration
  cocaine reward, incentive saliency and seeking behavior: reduce cocaine reward, incentive saliency and seeking behavior
Alcohol intake
  alcohol intake: reduced alcohol intake
[4]
  morphine-induced hyper-locomotor activity and CPP: reduced
[5]; fixed ratio 1 (FR1)
  heroin self-administration: did not significantly inhibit
[5]; progressive ratio (PR) paradigm
  rewarding effects of heroin: decreased the rewarding effects

## CC(N)C(=O)c1c(C(C)C)nn2ccccc12 (stereo not shown) [AV1013]
[2]
  Meth-induced hyper-locomotor activity and sensitization: reduced

## CCCCOc1cc(CC2CNC(=O)N2)ccc1OC (stereo not shown) [Ro 20-1724]
Alcohol intake
  alcohol intake: reduced alcohol intake

## O=C(c1cc2cccnc2n1-c1ccc(Cl)c(Cl)c1)N1CC(F)(F)C1 [KVA-D-88]
[6]; FR1 schedule, 5.0 mg/kg, P < 0.05
  rate of cocaine self-administration: strikingly reduced
[6]; [9]
  number of active nose-pokes: significantly decreased
  number of cocaine infusions: significantly decreased
[6]; [10]
  numbers of active nose-poke: significantly decreased
  numbers of cocaine infusions: significantly decreased
[6]; PR schedule, 3 h session, 5 mg/kg, P < 0.05
  break point: significantly decreased the numbers of break point
[6]; cocaine self-intake, comparison of effective doses
  fold stronger than apremilast on cocaine inhibition: ~10 fold
[6]; dose 0.5 mg/kg
  effect on cocaine self-intake (active nose poke), dose-response: no inhibitory effect
[6]; dose 1.0 mg/kg
  effect on cocaine self-intake (active nose poke), dose-response: no inhibitory effect
[6]; dose 2 mg/kg
  effect on cocaine self-intake (active nose poke), dose-response: showed the inhibitory effects but did not reached the significance
[6]; dose 4 mg/kg, P < 0.05
  effect on cocaine self-intake (active nose poke), dose-response: significant effects
PDE4B
  IC50: 140 nM
[7]; i.v. injection 1 mg/kg
  half-life (t1/2): 6.1 h
  mean residence time (MRT): 5.7 h
[7]; i.v. injection 1 mg/kg, plasma
  AUC from time zero to infinity (AUC∞): 1387.9 ng/mL
  AUC from time zero to the last measurable concentration (AUClast): 1382.9 ng/mL
  maximum plasma concentration (Cmax): 898.2 ng/mL
[7]; oral gavage 10 mg/kg
  AUC∞: 10825.9 ng/mL
  Cmax in the blood: 2150.5 ng/mL
  half-life (t1/2): 7.16 h
  mean residence time (MRT): 9 h
  time to reach maximum concentration in the blood (Tmax): 0.25 h
[7]; through either i.v. injection or p.o. approach
  half-life: 6 to 7 h
WT C57/BL6 mice; female mice, both testing doses (5 or 10 mg/kg i.p.), P < 0.05
  effect on cocaine-mediated hyper-locomotion: significantly blocked cocaine-mediated hyper-locomotion
WT C57/BL6 mice; mice, KVA-D-88 without cocaine
  effect on locomotor activity at basal levels: minimal effects
WT C57/BL6 mice; mice, daily pre-administration before cocaine for 7 consecutive days
  effect on cocaine-mediated locomotor sensitization: strikingly blocked cocaine-mediated locomotor sensitization
PDE4D
  IC50: 880 nM
[8]; i.p. 10 mg/kg, 30 min later
  average concentration in the blood: 3899.2 ng/mL
  concentration ratio of brain: blood (Kp): approximately 0.6
[8]; i.p. 10 mg/kg, 30 min later, whole brain homogenates
  average concentration in the brain: 2347.7 ng/g
[8]; i.v. dosing as printed in the discussion
  concentration ratio (brain vs. plasma): 0.6
[8]; p.o. dosing (10 mg/kg)
  concentration ratio (brain vs. plasma): 1.2

## CCOc1cc([C@@H](CS(C)(=O)=O)N2C(=O)c3cccc(NC(C)=O)c3C2=O)ccc1OC [apremilast, reference compound]
[6]; dose 5 mg/kg
  effect on numbers of cocaine self-intake: did not decrease
[6]; dose 20 mg/kg
  effect on numbers of cocaine self-intake: significant its inhibitory effects
Alcohol intake
  reward-related behavior induced by alcohol: decreasing the reward-related behavior induced by alcohol
